Experimental data published in US20130210779A1, “METHOD OF IDENTIFYING TRIPLE NEGATIVE BREAST CANCER” (The Washington University, priority 2012, published 2013).

Columns and labels:
BOGA cells [1] = experiment: Analysis of aberrant chromosomes in metaphase spreads (genomic instability); assay type: cell-based
Experimental: (§1) Aliquots of 1 nmol calcitriol were resuspended in 1 mL of bovine growth serum (BGS) and diluted in DMEM with antibiotics and antimycotics to a final concentration of 10% BGS. BGS was used as the vehicle in control media. Treatment was carried out for 24 hours unless indicated otherwise.
(§2) Cells were incubated with the broad spectrum cathepsin inhibitor E-64 (E3132, Sigma-Aldrich) at a concentration of 10 μM. Water served as the vehicle in control media. Treatment was carried out for 24 hours unless indicated otherwise.
Cells were treated with the PARPi EB-47 (E8405, Sigma-Aldrich) at a concentration of 1.2 μg/mL for 48 hours. PARPi was dissolved in water, which was used as vehicle control.
(§3) For determining the extent of genomic instability, cells were irradiated with 2 Gy and analysis of metaphase spreads was performed 24 hours post-irradiation. For assaying formation of IRIF, cells were irradiated with 8 Gy and fixed and processed for immunofluorescence 1 hour, 3 hours, or 6 hours post-irradiation as indicated. For comet assays, cells were irradiated with 8 Gy.
Following all treatments, cells were arrested in mitosis by treatment with colcemid for 4 hours and metaphase spreads prepared by hypotonic swelling in 0.56% KCl, followed by fixation in 3:1 methanol:acetic acid. Cell suspensions were dropped onto slides and stained for 25 minutes in Wright-Giemsa Stain (9380-32, Ricca Chemical Company) and then washed in water. Slides were allowed to dry and were mounted using Eukitt Mounting Reagent and analyzed on an Olympus BX51 light microscope.

BOGA cells [2] = experiment: Western blot of protein levels in BOGA cells after treatment; assay type: cell-based
Experimental: MCF7 cells were a gift from J. Weber (Washington University, St. Louis, Mo.). Cells were maintained in DMEM (Cellgro) supplemented with 10% fetal bovine serum (Sigma-Aldrich), antibiotics, and antimycotics. Cells transduced with short hairpin RNAs (shRNAs) were maintained in selection media containing 0.5 mg/mL Geneticin G418 (Gibco) or 2 μg/mL puromycin (Invitrogen).
Cells were lysed in RIPA buffer (50 mM Tris-HCl pH 8.0, 150 mM NaCl, 1% NP-40, 0.5% sodium deoxycholate, 0.5% SDS) supplemented with PMSF, protease inhibitors, and DTT. Following sonication, 120 μg of total cell lysate was loaded into 4%-15% Tris-Gly gradient gels. Protein detection was carried out with the following antibodies: BRCA1 (sc-6954, Santa Cruz), 53BP1 (NB100-304, Novus Biologicals), cathepsin L (sc-6498, Santa Cruz), p107 (sc-318, Santa Cruz), RAD51 (sc-8349, Santa Cruz), RPA (NA18, Calbiochem), and β-Tubulin (T8328, Sigma-Aldrich).
as §1, §2

BRCA1-deficient cells = conditions: cited from earlier work
BOGA cells [3] = experiment: 53BP1 IRIF formation by immunofluorescence; assay type: cell-based; conditions: BOGA cells (sh BRCA1), vitamin D 10−7 M from 24 hours prior to 8 Gy, fixed 6 hours post-IR
Experimental: (§4) Aliquots of 1 nmol calcitriol were resuspended in 1 mL of bovine growth serum (BGS) and diluted in DMEM with antibiotics and antimycotics to a final concentration of 10% BGS. BGS was used as the vehicle in control media. Treatment was carried out for 24 hours unless indicated otherwise. For determining the extent of genomic instability, cells were irradiated with 2 Gy and analysis of metaphase spreads was performed 24 hours post-irradiation. For assaying formation of IRIF, cells were irradiated with 8 Gy and fixed and processed for immunofluorescence 1 hour, 3 hours, or 6 hours post-irradiation as indicated. For comet assays, cells were irradiated with 8 Gy. Cells were plated on coverslips, irradiated with 8 Gy if indicated, and collected at the varying time intervals. Cells were fixed with 3.7% formaldehyde and 0.2% TritonX-100 in PBS for 10 minutes at RT, followed by 3 washes in PBS. After blocking in 1% BSA and 0.1% Triton X-100 in PBS for 1 hour at 37° C., cells were incubated with 53BP1 (NB100-304, Novus Biologicals) or RAD51 (sc-8349, Santa Cruz) antibodies for 1 hour at 37° C. Three washes in PBS were carried out followed by incubation for 1 hour at 37° C. with appropriate secondary antibodies. Final washes in PBS were carried out and cells were counterstained with DAPI and coverslips were mounted on slides using Vectashield (Vector Labs). […]

BOGA cells [4] = experiment: RAD51 IRIF formation by immunofluorescence; assay type: cell-based; conditions: vitamin D, 8 Gy
Experimental: as §4

BOGA cells [5] = experiment: Neutral comet assay, kinetics of DNA DSBs repair; assay type: cell-based; conditions: vitamin D 10−7 M 24 h preirradiation, 8 Gy
Experimental: as §3
Neutral comet assays were performed using CometSlide assay kits (Trevigen). […] Cells were embedded in agarose, lysed, and subjected to neutral single cell gel electrophoresis. The agarose was dehydrated and cells were stained with ethidium bromide to visualize under a fluorescence microscope. Olive comet moment was determined using the program CometScore Version 1.5 (TriTek). Olive moment was calculated by multiplying the percentage of DNA in the tail by the displacement between the means of the head and tail distributions as described (Olive et al., 1990). A total of 25-30 comets were analyzed per sample in each experiment.

[6] = BRCA1-deficient (BOGA) cells, E64 10 μM

CC(C)C[C@H](NC(=O)[C@H]1O[C@@H]1C(=O)O)C(=O)NCCCCN=C(N)N [E64]
Genomic instability after IR (BOGA cells [1]; E64 24 h prior to 2 Gy): marked increase | 53BP1 protein levels (western blot) (BOGA cells [2]; [6]): increased levels | CTSL levels (western blot) (BOGA cells [2]; [6]): without major changes

O=C(c1cc(Cc2n[nH]c(=O)c3ccccc23)ccc1F)N1CCCNCC1 [KU0058948]
Clonogenic survival of BRCA1-deficient cells compared to cells expressing BRCA1 (BRCA1-deficient cells): clear reduction

CNCc1ccc(-c2[nH]c3cc(F)cc4c3c2CCNC4=O)cc1 [AG014699]
Clonogenic survival of BRCA1-deficient cells compared to cells expressing BRCA1 (BRCA1-deficient cells): clear reduction

O=C1CCC(=O)N1c1cc(Cc2n[nH]c(=O)c3ccccc23)ccc1F [KU0058684]
Clonogenic survival of BRCA1-deficient cells compared to cells expressing BRCA1 (BRCA1-deficient cells): clear reduction

C=C1/C(=C\C=C2/CCC[C@]3(C)[C@@H]([C@H](C)CCCC(C)(C)O)CC[C@@H]23)C[C@@H](O)C[C@@H]1O [vitamin D, 1α,25-dihydroxyvitamin D3]
Extent of chromosomal aberrations in response to PARPi (BOGA cells [1]; vitamin D 10−7 M 24 h prior to and with PARPi EB-47 1.2 μg/mL 48 h): increase | Percentage of metaphases with aberrant chromosomes after IR (BOGA cells [1]; vitamin D 24 h prior to 2 Gy, 24 h post-IR): significantly increased | Genomic instability (metaphases with chromosomal aberrations), single agent (BOGA cells [1]; vitamin D alone, mock irradiation): modest increase | 53BP1 protein levels (western blot) (BOGA cells [2]; BOGA cells, vitamin D 10−7 M): stabilizes | p107 levels (control for inhibition of CTSL activity) (BOGA cells [2]; BOGA cells, vitamin D 10−7 M): stabilization | % cells with 53BP1 foci (BOGA cells [3]): 84% | % cells with 53BP1 foci (BOGA cells [3]; listed as vit D): 84% | % cells positive for RAD51 IRIF (BOGA cells [4]; 1 hour post-IR): 35% | Extent of RAD51 IRIF at later times post-irradiation (BOGA cells [4]; 3 h post-IR): did not affect | Kinetics of DNA DSBs repair (fast phase), Olive comet moment (BOGA cells [5]): rescues

Nc1ncnc2c1ncn2[C@@H]1O[C@H](C(=O)N2CCN(CC(=O)Nc3cccc4c3CNC4=O)CC2)[C@@H](O)[C@H]1O [EB-47]
Genomic instability (metaphases with chromosomal aberrations) (BOGA cells [1]; PARPi EB-47 1.2 μg/mL 48 h alone): does not result in profound genomic instability
